Laboratory results: patent publication US7132231B2, “Fluorescence polarization method for determining viral inhibitors” (priority 2001, dated 2006)

Columns and labels:
[1] = system: Pol/UL42 long-chain DNA synthesis (HSV Pol + HSV MBP-UL42); details: literature values [Digard et al. 1995; Bridges et al. 2000]; read-out: IC50 for specific inhibition of UL42 stimulated long-chain DNA synthesis; cited from earlier work
[2] = Cytotoxicity assay (XTT / crystal violet); assay type: cell-based, African green monkey; details: monkey; Vero cells, 72 h; read-out: Toxicity IC50
Description: DNA polymerase long-chain synthesis assay. Compounds which elicited a decrease in the fluorescence polarization, when compared to control values, were tested for the ability to inhibit long-chain DNA synthesis via inhibition of polymerase subunit assembly [Digard et al. 1995; Bridges et al. 2001] using a poly-A template (Amersham Pharmacia) and an oligo-dT primer (Roche Molecular Biochemicals) on which Pol alone adds only a few bases. Reaction mixtures (50 mM Tris-HCl pH 7.5, 100 mM ammonium sulfate, 3 mM MgCl2, 0.1 mM EDTA, 1 mM DTT, 4% Glycerol, 40 ug ml^−1 BSA, 100 ug ml^−1 primer/template, 50 uM α-^32P-TTP (111 TBq/mmol; NEN Life Science products)), contained 200 fmol of HSV Pol ([Weisshart et al. 1994]), 400 fmol of HSV MBP-UL42 and varying amounts of compound in a final volume of 25 ul. Reactions were carried out at 37° C. for 5 minutes and stopped by adding 5 ul of alkaline loading buffer (2mM EDTA, 50mM NaOH, 2.5% glycerol, 0.025% bromocresol green) and placing them on ice and were then loaded onto an 4% alkaline agarose gel. Gels were dried over night and exposed to phosphorescence screens (BioRad). Catalytic subunit activity filter binding assay. Compounds which elicited a decrease in fluorescence polarization were tested for the ability to inhibit DNA synthesis by Pol alone using the oligo-(dT)/poly-(dA) primer-template. Reaction mixtures (50 mM TrisHCl pH 7.5, 100 mM ammonium sulfate, 3 mM MgCl2, 0.1 mM EDTA, 1 mM DTT, 4% Glycerol, 40 μg ml^31 1 BSA, 100 μg ml^−1 primer/template, 50 μM α-^32P-TTP (111 TBq/mmol)) contained 200 fmol of HSV Pol and various amounts of each compound in a final volume of 25 μl. Reactions were carried out at 37° C. for 25 minutes and stopped by placing 10 μl of the reaction mix onto DE81 filter discs. After washes in sodium hydrogen phosphate, water and ethanol, they were counted in a liquid scintillation analyzer (Packard 1600 TR). Plaque reduction assay. Confluent monolayers of Vero (African green monkey kidney) cells in 12-well dishes were infected with herpes virus strain 17 dilutions such that each well received between 25 and 50 PFU. Diluted virus was absorbed to cells in 2 ml Dulbecco's modified Eagle's medium containing 2.5% newborn calf serum, 100 U penicillin G ml^−1 and 100 ug streptomycin sulfate ml^−1 for 1 hour at 37° C. in a humidified CO2 incubator. After absorption, triplicate infected cultures were overlaid with 2% methyl cellulose in Dulbecco's modified Eagle's medium containing 5% newborn calf serum, 100 U penicillin G ml^−1, 100 ug streptomycin sulfate ml^−1 and various concentrations of the compounds which elicited a decrease in fluorescence polarization and incubated at 37° C. in a humidified CO2 incubator. Plaques were visualized by crystal violet staining at 2 to 3 days post infection and were counted on the following day [Coen et al. 1985]. Cytotoxicity assays. Vero cells (5×10^4 cells per well) were seeded into 96-well plates and treated with various concentrations of the compounds (which elicited a decrease in the fluorescence polarization) for 72 h in quadruplicates. […] In parallel, equally compound-treated cells were fixed by adding 95% ethanol, stained with crystal violet solution and washed. After addition of 100 ul acidified ethanol (EtOH:HCl=99:1) to dissolve the crystal violet, the plates were read in the plate reader (Wallac). Viral yield assay. […] After two days, plaques were stained and counted under a microscope [Pritchard et al. 1990]. […]

[3] = target: T1, Pol/UL42 interaction (Oregon Green-peptide E / MBP-UL42Δ340) (Human herpesvirus 1, UniProt P10226); assay: Fluorescence polarization (FP) assay of Pol peptide/UL42 binding; parameters: species or system herpes simplex virus
T1 construct: made in house; host or cells: E. coli BL21(de3)pLysS (UL42Δ340 fusion); peptide E synthetic
T1 sequence (P10226 1-339, stated change not applied): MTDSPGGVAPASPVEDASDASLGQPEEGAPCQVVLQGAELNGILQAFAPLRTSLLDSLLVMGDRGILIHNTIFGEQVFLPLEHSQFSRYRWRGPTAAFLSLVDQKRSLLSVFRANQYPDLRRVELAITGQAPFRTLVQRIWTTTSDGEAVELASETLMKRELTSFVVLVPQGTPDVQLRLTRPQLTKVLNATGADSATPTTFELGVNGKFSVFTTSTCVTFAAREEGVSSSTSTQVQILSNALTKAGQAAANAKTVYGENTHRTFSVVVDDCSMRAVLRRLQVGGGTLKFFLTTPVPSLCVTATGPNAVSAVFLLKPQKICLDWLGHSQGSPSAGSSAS
Description: Peptide probe and MBP-UL42. A peptide comprising the 18 C-terminal amino acids of HSV Pol (peptide E) was synthesized, N-terminally labeled with the pentafluorofluorescein-derivative Oregon Green 514 (Molecular Probes) and HPLC-purified. A truncated version of UL42 (UL42Δ340) was expressed in BL21(de3)pLysS E.coli as maltose binding protein fusion as described [Bridges et al. 2001] and purified over an amylose column (New England Biolabs). […] After elution with 10 mM maltose in 50 mM TrisHCl, 1 mM DTT, 0.5 mM EDTA, 4% Glycerol, 200 mM NaCl and Complete™ protease inhibitors (Roche Molecular Biochemicals), the protein was concentrated when necessary and stored at −80° C. until further use. After thawing, the purification buffer was exchanged to low fluorescent grade reagents (PanVera) and maltose was removed simultaneously using 10-DG Bio-Gel columns (BioRad). Fluorescence polarization assays. 1 nM of Oregon Green-peptide E was added to 7 uM MBP-UL42Δ340 and kept on ice until the mix was distributed into black 384-well plates (LJL Biosystems) in a total volume of 20 ul per well. The buffer conditions were 50 mM TrisHCl pH 7.5, 1 mM DTT, 0.5 mM EDTA, 150 mM NaCl, 4% Glycerol and 100 ug ml^−1 bovine gamma globulin. All chemicals were low fluorescent grade (PanVera).
Using this assay, the 16,320 compound Chembridge library that had been purchased by the Harvard Institute of Chemistry and Cell Biology (ICBB) was screened. Small molecules (5 mg ml^−1 in DMSO; ChemBridge) were screened using 384-pin arrays (Genetix), and 40 nl of each compound was transferred into every well. After incubation between 5 and 45 minutes at room temperature, the FP values were determined in the Analyst plate reader (LJL Biosystems). Chemicals for further testing were obtained from ChemBridge.
DNA polymerase long-chain synthesis assay. Compounds which elicited a decrease in the fluorescence polarization, when compared to control values, were tested for the ability to inhibit long-chain DNA synthesis via inhibition of polymerase subunit assembly [Digard et al. 1995; Bridges et al. 2001] using a poly-A template (Amersham Pharmacia) and an oligo-dT primer (Roche Molecular Biochemicals) on which Pol alone adds only a few bases. Reaction mixtures (50 mM Tris-HCl pH 7.5, 100 mM ammonium sulfate, 3 mM MgCl2, 0.1 mM EDTA, 1 mM DTT, 4% Glycerol, 40 ug ml^−1 BSA, 100 ug ml^−1 primer/template, 50 uM α-^32P-TTP (111 TBq/mmol; NEN Life Science products)), contained 200 fmol of HSV Pol ([Weisshart et al. 1994]), 400 fmol of HSV MBP-UL42 and varying amounts of compound in a final volume of 25 ul. Reactions were carried out at 37° C. for 5 minutes and stopped by adding 5 ul of alkaline loading buffer (2mM EDTA, 50mM NaOH, 2.5% glycerol, 0.025% bromocresol green) and placing them on ice and were then loaded onto an 4% alkaline agarose gel. Gels were dried over night and exposed to phosphorescence screens (BioRad). Catalytic subunit activity filter binding assay. Compounds which elicited a decrease in fluorescence polarization were tested for the ability to inhibit DNA synthesis by Pol alone using the oligo-(dT)/poly-(dA) primer-template. Reaction mixtures (50 mM TrisHCl pH 7.5, 100 mM ammonium sulfate, 3 mM MgCl2, 0.1 mM EDTA, 1 mM DTT, 4% Glycerol, 40 μg ml^31 1 BSA, 100 μg ml^−1 primer/template, 50 μM α-^32P-TTP (111 TBq/mmol)) contained 200 fmol of HSV Pol and various amounts of each compound in a final volume of 25 μl. Reactions were carried out at 37° C. for 25 minutes and stopped by placing 10 μl of the reaction mix onto DE81 filter discs. After washes in sodium hydrogen phosphate, water and ethanol, they were counted in a liquid scintillation analyzer (Packard 1600 TR). Plaque reduction assay. Confluent monolayers of Vero (African green monkey kidney) cells in 12-well dishes were infected with herpes virus strain 17 dilutions such that each well received between 25 and 50 PFU. […]

[4] = target: T2, Pol/UL42 long-chain DNA synthesis (HSV Pol + HSV MBP-UL42) (Human herpesvirus 1, UniProt P10226); assay: DNA polymerase long-chain synthesis assay; assay type: biochemical, herpes simplex virus
T2 construct: in presence of the whole catalytic subunit; made in house; host or cells: UL42 fusion: E. coli BL21(de3)pLysS
T2 sequence (P10226 1-339): as the sequence (P10226 1-339, stated change not applied) above
Description: (§1) DNA polymerase long-chain synthesis assay. Compounds which elicited a decrease in the fluorescence polarization, when compared to control values, were tested for the ability to inhibit long-chain DNA synthesis via inhibition of polymerase subunit assembly [Digard et al. 1995; Bridges et al. 2001] using a poly-A template (Amersham Pharmacia) and an oligo-dT primer (Roche Molecular Biochemicals) on which Pol alone adds only a few bases. Reaction mixtures (50 mM Tris-HCl pH 7.5, 100 mM ammonium sulfate, 3 mM MgCl2, 0.1 mM EDTA, 1 mM DTT, 4% Glycerol, 40 ug ml^−1 BSA, 100 ug ml^−1 primer/template, 50 uM α-^32P-TTP (111 TBq/mmol; NEN Life Science products)), contained 200 fmol of HSV Pol ([Weisshart et al. 1994]), 400 fmol of HSV MBP-UL42 and varying amounts of compound in a final volume of 25 ul. Reactions were carried out at 37° C. for 5 minutes and stopped by adding 5 ul of alkaline loading buffer (2mM EDTA, 50mM NaOH, 2.5% glycerol, 0.025% bromocresol green) and placing them on ice and were then loaded onto an 4% alkaline agarose gel. Gels were dried over night and exposed to phosphorescence screens (BioRad). Catalytic subunit activity filter binding assay. Compounds which elicited a decrease in fluorescence polarization were tested for the ability to inhibit DNA synthesis by Pol alone using the oligo-(dT)/poly-(dA) primer-template. Reaction mixtures (50 mM TrisHCl pH 7.5, 100 mM ammonium sulfate, 3 mM MgCl2, 0.1 mM EDTA, 1 mM DTT, 4% Glycerol, 40 μg ml^31 1 BSA, 100 μg ml^−1 primer/template, 50 μM α-^32P-TTP (111 TBq/mmol)) contained 200 fmol of HSV Pol and various amounts of each compound in a final volume of 25 μl. Reactions were carried out at 37° C. for 25 minutes and stopped by placing 10 μl of the reaction mix onto DE81 filter discs. After washes in sodium hydrogen phosphate, water and ethanol, they were counted in a liquid scintillation analyzer (Packard 1600 TR). Plaque reduction assay. Confluent monolayers of Vero (African green monkey kidney) cells in 12-well dishes were infected with herpes virus strain 17 dilutions such that each well received between 25 and 50 PFU. Diluted virus was absorbed to cells in 2 ml Dulbecco's modified Eagle's medium containing 2.5% newborn calf serum, 100 U penicillin G ml^−1 and 100 ug streptomycin sulfate ml^−1 for 1 hour at 37° C. in a humidified CO2 incubator. After absorption, triplicate infected cultures were overlaid with 2% methyl cellulose in Dulbecco's modified Eagle's medium containing 5% newborn calf serum, 100 U penicillin G ml^−1, 100 ug streptomycin sulfate ml^−1 and various concentrations of the compounds which elicited a decrease in fluorescence polarization and incubated at 37° C. in a humidified CO2 incubator. Plaques were visualized by crystal violet staining at 2 to 3 days post infection and were counted on the following day [Coen et al. 1985]. Cytotoxicity assays. Vero cells (5×10^4 cells per well) were seeded into 96-well plates and treated with various concentrations of the compounds (which elicited a decrease in the fluorescence polarization) for 72 h in quadruplicates. […] In parallel, equally compound-treated cells were fixed by adding 95% ethanol, stained with crystal violet solution and washed. After addition of 100 ul acidified ethanol (EtOH:HCl=99:1) to dissolve the crystal violet, the plates were read in the plate reader (Wallac). Viral yield assay. Vero cells were seeded into 96-well (5×10^4 cells per well) tissue culture plates in 0.2 ml Dulbecco's modified Eagle's medium containing 2.5% newborn calf serum and 100 U penicillin G ml^−1. Cultures were inoculated with HSV strain 17 at an MOI of 5 PFU per cell. The virus inoculum was replaced after two hours with medium containing dilution series of test compounds and left for 24 hours. After two cycles of freeze-thawing, each drug dilution row was transferred to a freshly seeded 96-well plate and serially 1:3 diluted over the whole plate. After two days, plaques were stained and counted under a microscope [Pritchard et al. 1990]. […]

[5] = target: T3, HSV Pol (Human herpesvirus 1, UniProt P04293, N46K); assay: Catalytic subunit activity filter binding assay (Pol alone); assay type: biochemical, herpes simplex virus; details: at higher compound concentrations, FIG. 5
T3 construct: in presence of the whole catalytic subunit
T3 sequence (P04293 whole entry N46K): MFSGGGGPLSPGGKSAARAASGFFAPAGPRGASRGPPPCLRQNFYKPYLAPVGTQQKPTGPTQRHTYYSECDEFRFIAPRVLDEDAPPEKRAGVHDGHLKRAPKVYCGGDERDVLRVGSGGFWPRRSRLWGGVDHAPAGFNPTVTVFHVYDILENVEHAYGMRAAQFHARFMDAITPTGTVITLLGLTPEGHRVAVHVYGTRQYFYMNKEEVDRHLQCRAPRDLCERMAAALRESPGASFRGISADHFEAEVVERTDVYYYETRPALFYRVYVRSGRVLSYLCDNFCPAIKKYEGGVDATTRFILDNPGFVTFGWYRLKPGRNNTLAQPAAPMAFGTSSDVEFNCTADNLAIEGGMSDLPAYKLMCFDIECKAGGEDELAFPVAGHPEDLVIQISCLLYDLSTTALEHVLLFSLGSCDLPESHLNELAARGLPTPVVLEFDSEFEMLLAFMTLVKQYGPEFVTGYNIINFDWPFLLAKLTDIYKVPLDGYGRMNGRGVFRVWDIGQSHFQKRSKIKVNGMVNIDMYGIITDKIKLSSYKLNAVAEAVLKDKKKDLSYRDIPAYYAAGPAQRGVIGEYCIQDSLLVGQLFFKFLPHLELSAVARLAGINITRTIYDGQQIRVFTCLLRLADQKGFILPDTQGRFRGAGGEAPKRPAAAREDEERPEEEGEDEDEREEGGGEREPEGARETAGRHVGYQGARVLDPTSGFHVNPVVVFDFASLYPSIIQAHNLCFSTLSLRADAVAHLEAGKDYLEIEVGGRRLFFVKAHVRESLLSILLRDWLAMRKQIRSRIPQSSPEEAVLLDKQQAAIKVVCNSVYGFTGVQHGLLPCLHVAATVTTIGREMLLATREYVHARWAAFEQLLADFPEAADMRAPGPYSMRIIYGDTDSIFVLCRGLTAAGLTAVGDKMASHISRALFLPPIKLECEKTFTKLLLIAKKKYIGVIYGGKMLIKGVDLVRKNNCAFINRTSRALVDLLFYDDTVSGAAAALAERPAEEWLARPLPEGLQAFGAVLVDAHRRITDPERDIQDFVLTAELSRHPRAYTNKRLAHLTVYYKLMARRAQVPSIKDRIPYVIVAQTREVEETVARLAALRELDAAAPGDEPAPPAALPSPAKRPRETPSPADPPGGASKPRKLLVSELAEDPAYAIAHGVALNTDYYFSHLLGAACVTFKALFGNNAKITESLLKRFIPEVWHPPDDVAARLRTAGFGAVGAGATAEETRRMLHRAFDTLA
Description: as §1

[6] = target: T4, HSV Pol (Human herpesvirus 1, UniProt P04293); assay: as above; assay type: biochemical, herpes simplex virus
T4 construct: in presence of the whole catalytic subunit
T4 sequence (P04293 whole entry N46K): as above
Description: as §1

Molecule | IC50 [1] [µM] | CC50 at 72 h [2] [µM] | IC50 [3] [µM] | dose dependent change in the FP signal ([3]; serial dilution, FIG. 3) | IC50 [4] [µM] | ability of UL42 to stimulate long-chain synthesis by Pol ([4]; FIG. 4, BP1, BP3, BP5 at 30 μM, BP9 at 100, 75, 50, 25 and 12 μM) | Pol activity in absence of UL42 [5] | IC50 [6] [µM]
ATAEEETRRMLHRAFDTLA [peptide E, Ac-Ala-Thr-Ala-Glu-Glu-Glu-Thr-Arg-Arg-Met-Leu-His-Arg-Ala-Phe-Asp-Thr-Leu-Ala-NH2] | 11 | – | – | – | – | – | – | –
CSCCC(C(=O)O)N1C(=O)/C(=C/c2ccc(Cl)cc2Cl)SC1=S (stereo not drawn) [BP9] | – | 200 | 48 | dose dependent change | 25 | greatly reduced | significantly reduced | 25
CSCC[C@H](NC(=O)[C@H](CCCNC(=N)N)NC(=O)[C@H](CCCNC(=N)N)NC(=O)[C@@H](NC(=O)[C@H](CCC(=O)O)NC(=O)[C@H](CCC(=O)O)NC(=O)[C@H](C)NC(=O)[C@@H](NC(=O)[C@H](C)NC(=O)CNC(=O)[C@H](C)NC(=O)CNC(=O)[C@@H](NC(=O)[C@H](C)NC(=O)CNC(=O)[C@H](Cc1ccccc1)NC(=O)CNC(=O)[C@H](C)NC(=O)[C@@H](NC(=O)[C@H](CCCNC(=N)N)NC(=O)[C@H](CC(C)C)NC(=O)[C@H](CCCNC(=N)N)NC(=O)[C@H](C)NC(=O)[C@H](C)NC(=O)[C@@H](NC(=O)[C@H](CC(=O)O)NC(=O)[C@H](CC(=O)O)NC(C)=O)C(C)C)[C@@H](C)O)C(C)C)[C@@H](C)O)[C@@H](C)O)C(=O)N[C@@H](CC(C)C)C(=O)N[C@@H](Cc1c[nH]cn1)C(=O)N[C@@H](CCCNC(=N)N)C(=O)N[C@@H](C)C(=O)N[C@@H](Cc1ccccc1)C(=O)N[C@@H](CC(=O)O)C(=O)N[C@H](C(=O)N[C@@H](CC(C)C)C(=O)N[C@@H](C)C(N)=O)[C@@H](C)O [peptide A] | 3 | – | – | – | – | – | – | –
